According to article PMC12655351, “Synthesis and Anticancer Activity Evaluation of New 5-((5-Nitrofuran-2-yl)allylidene)-2-thioxo-4-thiazolidinones” (Pharmaceuticals, 2025):

How the values were obtained:
IGROV1 = details: human, 48 h
[1] = system: mitochondrial membrane potential (ΔΨm) of MCF-7 breast cancer cells; test: JC-1 flow cytometry; type: cell-based, human; details: 24 h
Method: This method involves marking cells with fully functional mitochondria with red fluorescence due to the accumulation of the dye in hyperpolarized mitochondrial membrane. In case of a damaged membrane, the dye decomposes into monomers, emitting green fluorescence. […] For MDA-MB-231 cells, the values were as follows: 4.25% for 5 μM and 20.95% for 10 μM concentration. The obtained results signify the compound’s capability to decrease mitochondrial potential on both cell lines at a higher concentration (Figure 6).
The mitochondrial membrane potential (ΔΨm) was analyzed by using the JC-1 MitoScreen kit (BD Biosciences, San Diego, CA, USA). The tested compounds and reference drug were used in 1 and 5 µM concentrations on the MCF-7 cell line and 5 and 10 µM on the MDA-MB-231 cell line. After 24 h of incubation with the tested compounds, the assay was performed as described in the literature. The assay was performed using a flow cytometer (BD FACSCanto II, Becton Dickinson Biosciences Systems, San Jose, CA, USA), and results were obtained using FACSDiva software (version 6.1.3, BD Biosciences Systems, San Jose, CA, USA).

HOP-92 = details: human, 48 h
MDA-MB-468 = details: human, 48 h

| Structure (SMILES) | CC50 (IGROV1) | Decreased Δψ (decrease in mitochondrial potential) ([1]; MCF-7, 1 μM) | Decreased Δψ (decrease in mitochondrial potential) ([1]; MCF-7, 5 μM) | CC50 (HOP-92) | CC50 (MDA-MB-468) |
| --- | --- | --- | --- | --- | --- |
| O=C(O)CCCN1C(=O)/C(=C/C=C/c2ccc([N+](=O)[O-])o2)SC1=S [13b, 4-((Z)-5-((E)-3-(5-Nitrofuran-2-yl)allylidene)-4-oxo-2-thioxothiazolidin-3-yl)butanoic acid] | 7.77 µM | – | – | – | – |
| O=C(O)CCCCCN1C(=O)/C(=C/C=C/c2ccc([N+](=O)[O-])o2)SC1=S [14b, 6-((Z)-5-((E)-3-(5-nitrofuran-2-yl)allylidene)-4-oxo-2-thioxothiazolidin-3-yl)hexanoic acid] | – | 8.75% | 20.25% | 5.84 µM | 4.29 µM |
